The values that follow come from patent US11590139B2, “Substituted aminopurine compounds, compositions thereof, and methods of treatment therewith” (Signal Pharmaceuticals, LLC, priority 2014, dated 2023).

The test system of this assay is Lox-IMVI melanoma cell line. Nature of the assay: Lox-IMVI anti-proliferative assay (growth inhibition, Cell Titer-Glo). The format is cell-based, human. Particulars: Homo sapiens. Summed up:
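Lox-IMVI cells in RPMI+10% FBS exposed 72 h at 37 °C to 10-point, 3-fold dilutions (0.5 nM–10 μM; 0.2% DMSO final), in duplicate. Viability by Cell Titer-Glo luminescence, with a t0 cell-number reading; data as % of DMSO control; IC50 from a four-parameter logistic fit.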

[1] abbreviates: Lox-IMVI melanoma cell line, anti-proliferative assay, read-out: Activity (IC50 activity level).
Where [2] appears, read: IC50 activity level in the cell-based Lox-IMVI anti-proliferative assay, read-out: Activity.
[3] abbreviates: Lox-IMVI anti-proliferative assay, IC50 activity level, read-out: Activity.

Read-outs that look alike come from different tables or passages of the source.

With `C[C@]1(C(N)=O)CC[C@@H](n2c(Nc3c(F)cc(C#N)cc3F)nc3cnc(NC4CCC4)nc32)CC1` [Example 601, (1s,4s)-4-(8-(4-cyano-2,6-difluorophenylamino)-2-(cyclobutylamino)-9H-purin-9-yl)-1-methylcyclohexanecarboxamide], under setting [1], the IC50 was below 250 nM. As to `C[C@]1(C(N)=O)CC[C@@H](n2c(Nc3c(F)cc(Cl)cc3F)nc3cnc(N[C@H]4CCC[C@H](O)C4)nc32)CC1` [Example 614, (1R,4s)-4-(8-(4-chloro-2,6-difluorophenylamino)-2-((1S,3S)-3-hydroxycyclohexylamino)-9H-purin-9-yl)-1-methylcyclohexanecarboxamide], the IC50 under setting [1] is below 250 nM. `CC1(C)CC[C@@H](Nc2ncc3nc(Nc4c(F)cccc4F)n([C@H]4CC[C@@H](C(N)=O)CC4)c3n2)C[C@H]1O` [Example 382, (1S,4s)-4-(8-(2,6-difluorophenylamino)-2-((1R,3R)-3-hydroxy-4,4-dimethylcyclohexylamino)-9H-purin-9-yl)cyclohexanecarboxamide]: under setting [2], the IC50 was above 1000 nM. In the case of `NC(=O)[C@H]1CC[C@@H](n2c(Nc3c(F)cc(Cl)cc3Cl)nc3cnc(N[C@H]4CCCOC4)nc32)CC1` [Example 204, (1R,4s)-4-(8-(2,4-dichloro-6-fluorophenylamino)-2-((S)-tetrahydro-2H-pyran-3-ylamino)-9H-purin-9-yl)cyclohexanecarboxamide], the IC50 under setting [2] is above 1000 nM. With `NC(=O)[C@H]1CC[C@@H](n2c(Nc3c(F)cc(Cl)cc3Cl)nc3cnc(NC4CCCC4)nc32)CC1` [Example 122, (1s,4s)-4-(2-(cyclopentylamino)-8-(2,4-dichloro-6-fluorophenylamino)-9H-purin-9-yl)cyclohexanecarboxamide], the IC50 under setting [2] was 250 to 500 nM. With `NC(=O)[C@H]1CC[C@@H](n2c(Nc3c(Cl)cc(C(F)(F)F)cc3Cl)nc3cnc(NC4CCCOCC4)nc32)CC1` (some centres unmarked) [Example 544, (1s,4s)-4-(8-(2,6-dichloro-4-(trifluoromethyl)phenylamino)-2-(oxepan-4-ylamino)-9H-purin-9-yl)cyclohexanecarboxamide], the IC50 under setting [3] is above 1000 nM.

For the compound `C[C@@H](O)CNc1ncc2nc(Nc3c(Cl)cc(Cl)cc3Cl)n([C@H]3CC[C@@H](C(N)=O)CC3)c2n1` [Example 152, (1S,4s)-4-(2-((R)-2-hydroxypropylamino)-8-(2,4,6-trichlorophenylamino)-9H-purin-9-yl)cyclohexanecarboxamide], the IC50 under setting [2] is above 1000 nM.

Regarding `N#Cc1cc(Cl)c(Nc2nc3cnc(N[C@@H]4CCCN(c5ccccc5)C4)nc3n2[C@H]2CC[C@@H](C(N)=O)CC2)c(Cl)c1` [Example 744, (1S,4s)-4-(8-(2,6-dichloro-4-cyanophenylamino)-2-((R)-1-phenylpiperidin-3-ylamino)-9H-purin-9-yl)cyclohexanecarboxamide], under setting [1], the IC50 is above 1000 nM.

As to `NC(=O)[C@H]1CC[C@@H](n2c(Nc3c(F)cc(Cl)cc3F)nc3cnc(NCC(F)(F)CO)nc32)CC1` [Example 453, (1s,4s)-4-(8-(4-chloro-2,6-difluorophenylamino)-2-(2,2-difluoro-3-hydroxypropylamino)-9H-purin-9-yl)cyclohexanecarboxamide], the IC50 under setting [3] was above 1000 nM.

On to `CC(=O)N1CCC[C@@H](Nc2ncc3nc(Nc4c(Cl)cccc4Cl)n([C@H]4CC[C@@H](C(N)=O)CC4)c3n2)C1` [Example 800, (1S,4s)-4-(2-((R)-1-acetylpiperidin-3-ylamino)-8-(2,6-dichlorophenylamino)-9H-purin-9-yl)cyclohexanecarboxamide], for which the IC50 (Lox-IMVI anti-proliferative assay, cell-based, read-out: Activity (IC50 activity level)) was above 1000 nM. For `COC(=O)N1CCCC(Nc2ncc3nc(Nc4c(F)cccc4Cl)n([C@H]4CC[C@@H](C(N)=O)CC4)c3n2)C1` (stereo partly drawn) [Example 406, (R)-methyl 3-(9-((1s,4S)-4-carbamoylcyclohexyl)-8-(2-chloro-6-fluorophenylamino)-9H-purin-2-ylamino)piperidine-1-carboxylate], the IC50 under setting [3] was above 1000 nM.
